Source: publication PMC5701137, “Discovery of novel choline acetyltransferase inhibitors using structure-based virtual screening” (Scientific Reports, 2017)
pIC50, pKi: −log10 of the molar value.

Columns and labels:
Format in all cases: biochemical
[1] = target: T1, human rChAT (Homo sapiens, UniProt P28329); experiment: In vitro ChAT activity inhibition fluorometric assay and kinetic studies; conditions: 100 µM compound; compared to control; mean of three experiments in triplicate; read-out: ChAT % IR (inhibition rate)
T1 construct: made in house; host or cells: E. coli BL21 Rosetta2
T1 sequence (P28329 1-630 isoform P28329-3): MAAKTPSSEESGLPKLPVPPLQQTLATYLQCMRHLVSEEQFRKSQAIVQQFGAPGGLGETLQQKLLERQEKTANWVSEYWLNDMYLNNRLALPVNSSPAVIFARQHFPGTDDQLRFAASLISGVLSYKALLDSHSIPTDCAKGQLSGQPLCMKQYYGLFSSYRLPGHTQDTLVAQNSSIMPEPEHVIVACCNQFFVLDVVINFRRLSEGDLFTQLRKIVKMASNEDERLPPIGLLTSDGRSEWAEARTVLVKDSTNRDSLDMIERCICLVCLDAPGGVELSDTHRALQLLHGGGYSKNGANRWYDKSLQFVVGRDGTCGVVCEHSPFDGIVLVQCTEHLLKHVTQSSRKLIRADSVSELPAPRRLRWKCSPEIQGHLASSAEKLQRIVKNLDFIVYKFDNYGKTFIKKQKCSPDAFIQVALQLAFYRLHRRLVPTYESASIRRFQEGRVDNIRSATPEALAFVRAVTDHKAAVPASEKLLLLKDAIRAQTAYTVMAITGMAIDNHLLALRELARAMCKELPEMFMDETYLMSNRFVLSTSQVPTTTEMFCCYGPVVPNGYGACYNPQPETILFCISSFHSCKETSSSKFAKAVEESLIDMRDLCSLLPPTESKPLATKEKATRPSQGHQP
Protocol: ChAT activity was measured using our newly developed fluorometric assay, using human recombinant ChAT (rChAT) protein. The reagents, choline chloride, acetyl coenzyme-A (ACoA, A2181) and 7-Diethylamino-3-(4-maleimidophenyl)-4-methylcoumarin (CPM) were purchased from Sigma-Aldrich (St. Louis, MO, USA).
The ChAT assay could be run in either 96-well or 384-well plates. For 96-well plates, 50 μL/well of 0.212 µg/ml (final concentration) of the recombinant ChAT was incubated with 100 μM different Asinex compounds (50 μL/well) for 10–30 minutes at room temperature in dilution buffer (10 mM Tris-HCl, pH 7.4, 150 mM NaCl, 1.0 mM EDTA, 0.05% (v/v) Triton X-100). Then, 50 µL of a cocktail-A [dilution buffer containing choline chloride (final concentration 150 µM), ACoA (final concentration 13.3 µM) and CPM (final concentration 15 µM)] was added to each well. Immediately after adding the cocktail-A, the changes in fluorescence was monitored kinetically at 479 nm after exciting at 390 nm at 1–2 minute intervals for 15–20 minutes using a microplate spectrophotometer reader (Infinite M1000, Tecan).
Each Asinex compounds were run in triplicates. On each 96-wells plate, several enzyme wells without inhibitor were also included during measurements as control and for estimating the inhibition level. Negative controls were wells without enzyme. The percentage inhibition for each Asinex compound was calculated based on the enzyme control value as a reference (100% activity). The compounds showing over 50% inhibition of enzyme activity were selected for further kinetic studies.
(§1) For kinetic studies, a similar protocol as inhibition assay was followed; a dilution series of five different concentrations ranging from 10^−6 to 10^−9 M were prepared for each selected Asinex compounds. For ChAT, the A-CoA was kept constant at 10 μM (final) but the concentration of choline chloride varied between 320–10 μM. For BuChE, BTC was used as the substrate in the concentrations ranging from 0.0625 to 2 mM. For AChE, ATC was used as the substrate in the concentrations ranging from 0.0312 to 1 mM. Each compound concentration was measured in duplicates. The rate of enzyme activity (as ∆OD/hr kinetic data) was calculated and processed using the GraphPad Prism 7 analysis software. The inhibitory constant (Ki) values were determined from the dose-response curve and the half-maximal inhibitory concentration (IC50) values were calculated by plotting the percentage enzyme activity vs. the log of the Asinex compound concentrations and fitting the data using the nonlinear regression Enzyme Kinetics-Inhibition function.
The Michaelis-Menten constant (Km) and maximal velocity (Vmax) values were calculated from substrate-velocity curve after fitting the data with non-linear regression Michaelis-Menten kinetic function. The Km and Vmax values were further used to plot the Lineweaver-Burk plots; the plots were fitted using linear regression function.

[2] = target: T2, recombinant human AChE (Homo sapiens, UniProt P22303); experiment: Modified Ellman's colorimetric assay for AChE and kinetic studies; conditions: for inhibition at 200 µM: 200 µM compound, compared to control, mean of three experiments in triplicate, read-out: AChE % IR (inhibition rate); for pKi / pIC50: mean of two experiments; for pIC50: substrate ATC 0.5 mM
T2 construct: purchased Sigma C1682
Description: (§2) A modified version of Ellman’s colorimetric assay[16],[17] was adapted to a high throughput assay for the enzymatic activity of BuChE and AChE. The reagent, butyrylthiocholine iodide (BTC), acetylthiocholine iodide (ATC), 5,5′-dithiobis (2-nitrobenzoic acid) (DTNB) were purchased from Sigma-Aldrich (St. Louis, MO, USA). The modified assay details are as previously described[34],[35]. The main modification concerned with the high throughput adaptation of the assay for use in 384-well plates. Briefly, 25 μL/well of a 1:450 diluted solution of a pooled human plasma and 1:768 diluted (3.5 ng/ml final concentration) purified recombinant human AChE protein (Sigma, Cat no. C1682) was used for measurement of BuChE and AChE activity, respectively. In the initial in vitro screening step, the wells were pre-incubated with 25 μL/wells of different Asinex compounds for 10–30 minutes at room temperature. The concentration of the compounds working solution was 3X to give a final concentration of 200 μM in a final volume of 75 μL in each well. The stock concentration of the compounds were prepared in 100% DMSO. The stock concentration was chosen usually at 10 mM, allowing the final DMSO concentration in the wells to be less than 4%. Finally, 25 μL of a cocktail mix prepared in Na/K phosphate buffer, containing DTNB (final concentration 0.4 mM) and BTC, (final concentration 1 mM) or ATC (final concentration 0.5 mM) was added to each well and the changes in absorbance was monitored at 412 nm wavelength for 15–20 minutes with one-minute interval, using a microplate spectrophotometer reader (Infinite M1000, Tecan). The rate of the enzyme activity was determined from the linear part of the kinetic reaction curves as ∆OD/time.
as §1

[3] = target: T3, plasma BuChE (Homo sapiens, UniProt P06276); experiment: Modified Ellman's colorimetric assay for BuChE (pooled human plasma) and kinetic studies; conditions: 200 µM compound; compared to control; mean of three experiments in triplicate; read-out: BuChE % IR (inhibition rate)
T3 construct: 1:450 diluted solution of a pooled human plasma; from tissue; host or cells: pooled human plasma
Description: as §2, §1

T2 sequence (P22303 32-614): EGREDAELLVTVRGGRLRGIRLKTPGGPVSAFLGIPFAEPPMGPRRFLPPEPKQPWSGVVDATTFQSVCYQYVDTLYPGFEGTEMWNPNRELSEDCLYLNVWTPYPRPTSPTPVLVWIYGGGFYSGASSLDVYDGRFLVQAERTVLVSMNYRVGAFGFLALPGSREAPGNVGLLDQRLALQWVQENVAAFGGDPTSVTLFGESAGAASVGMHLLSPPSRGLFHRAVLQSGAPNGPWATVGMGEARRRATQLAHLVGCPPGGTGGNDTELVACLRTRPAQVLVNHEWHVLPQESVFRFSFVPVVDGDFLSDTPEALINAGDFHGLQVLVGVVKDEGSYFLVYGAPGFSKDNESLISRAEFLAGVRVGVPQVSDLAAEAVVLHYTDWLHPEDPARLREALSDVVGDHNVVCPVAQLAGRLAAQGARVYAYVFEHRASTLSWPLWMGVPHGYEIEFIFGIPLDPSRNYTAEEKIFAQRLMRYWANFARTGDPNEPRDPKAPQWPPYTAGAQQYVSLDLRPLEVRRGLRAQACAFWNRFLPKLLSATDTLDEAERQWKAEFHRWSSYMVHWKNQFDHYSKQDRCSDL
T3 sequence (P06276 29-602): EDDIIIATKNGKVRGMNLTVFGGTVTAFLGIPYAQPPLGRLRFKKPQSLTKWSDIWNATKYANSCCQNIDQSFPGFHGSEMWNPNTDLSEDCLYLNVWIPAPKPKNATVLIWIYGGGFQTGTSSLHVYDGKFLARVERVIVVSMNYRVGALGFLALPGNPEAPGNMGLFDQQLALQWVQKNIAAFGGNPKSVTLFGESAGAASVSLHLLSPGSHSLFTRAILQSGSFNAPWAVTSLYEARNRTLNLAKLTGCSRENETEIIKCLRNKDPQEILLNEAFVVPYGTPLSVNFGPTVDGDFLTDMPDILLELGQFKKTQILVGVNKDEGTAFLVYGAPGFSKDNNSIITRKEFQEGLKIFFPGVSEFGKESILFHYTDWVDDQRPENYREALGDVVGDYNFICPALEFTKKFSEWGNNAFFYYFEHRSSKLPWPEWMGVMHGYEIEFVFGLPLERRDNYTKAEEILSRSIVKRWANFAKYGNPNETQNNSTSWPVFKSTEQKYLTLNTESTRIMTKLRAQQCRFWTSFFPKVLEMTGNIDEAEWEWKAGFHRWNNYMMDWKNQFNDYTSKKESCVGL

`COc1cccc(OCC(=O)Nc2cc3oc4ccccc4c3cc2OC)c1` [Compound E4] showed an inhibition at 100 µM [1] of 4.8%, an inhibition at 200 µM [2] of 1.5% and an inhibition at 200 µM [3] of 11.7%.

Work on `COc1cc(OC)cc(C(=O)N2CCN(C(=O)C(c3ccccc3)c3ccccc3)CC2)c1` [Compound A1] yielded an inhibition at 100 µM [1] of 0%, an inhibition at 200 µM [2] of 0% and an inhibition at 200 µM [3] of 4.8%.

Work on `CCOC(=O)c1sc2ncn(CCc3ccccc3)c(=O)c2c1C` [Compound A3] yielded an inhibition at 100 µM [1] of 6.9%, an inhibition at 200 µM [2] of 0% and an inhibition at 200 µM [3] of 15.1%.

Work on `Cc1c(C)n(C(=O)CSc2nnc(-c3ccccc3)o2)c2ccccc12` [Compound A4] yielded an inhibition at 100 µM [1] of 26.7%, an inhibition at 200 µM [2] of 0% and an inhibition at 200 µM [3] of 14.4%.

With `COc1ccc(CC(=O)Nc2cc3oc4ccccc4c3cc2OC)cc1` [Compound B3] the inhibition at 100 µM [1] was 0%, the inhibition at 200 µM [2] was 0% and the inhibition at 200 µM [3] was 16.6%.

`CC(=O)c1ccc(NC(=O)CN2CCN(c3cccc(C)c3C)CC2)cc1` [Compound D2] was tested, and the inhibition at 100 µM [1] was 0%, the inhibition at 200 µM [2] was 18.1% and the inhibition at 200 µM [3] was 7%.

`C=C(C)CN1N=C(C)Cn2c1nc1c2c(=O)n(C/C=C/c2ccccc2)c(=O)n1C` [Compound E5] showed an inhibition at 100 µM [1] of 0%, an inhibition at 200 µM [2] of 4.1% and an inhibition at 200 µM [3] of 12.8%.

With `CC1(C)CC(=O)C(=CNCC2CCN(C(=O)Cc3ccc(Cl)cc3)CC2)C(=O)C1` [Compound A5] the inhibition at 100 µM [1] was 2.1%, the inhibition at 200 µM [2] was 7% and the inhibition at 200 µM [3] was 9.2%.

Compound `CCOc1ccc2[nH]c(=O)c(CN(Cc3ccccc3)C(=O)N3CCCC3)cc2c1` [Compound D7] has an inhibition at 100 µM [1] of 0%, an inhibition at 200 µM [2] of 27.7% and an inhibition at 200 µM [3] of 22.4%.

In the case of `Cc1cccc(N2CCN(CC(=O)Nc3ccc(C)c(F)c3)CC2)c1` [Compound D1], the inhibition at 100 µM [1] was 0%, the inhibition at 200 µM [2] was 0% and the inhibition at 200 µM [3] was 20%.

Work on `COc1ccc(-c2nnc(-c3cc4c(ccc5ccccc54)oc3=O)o2)cc1` [Compound C6] yielded an inhibition at 200 µM [2] of 33.1% and an inhibition at 200 µM [3] of 34.7%.

`COc1ccccc1N1CCN(c2nc(-c3ccc(C)cc3)cc(=O)[nH]2)CC1` [Compound B6] was tested, and the inhibition at 100 µM [1] was 7.6%, the inhibition at 200 µM [2] was 2.6% and the inhibition at 200 µM [3] was 11%.

For `COc1ccc(Cl)cc1NC(=O)CCN1CCN(c2ccccc2C)CC1` [Compound B2], the inhibition at 100 µM [1] was 0%, the inhibition at 200 µM [2] was 0% and the inhibition at 200 µM [3] was 18.5%.

`Clc1cccc(N2CCN(Cc3nnn(Cc4ccco4)n3)CC2)c1` [Compound A7] showed an inhibition at 100 µM [1] of 7.2%, an inhibition at 200 µM [2] of 15.8% and an inhibition at 200 µM [3] of 29.9%.

`O=C(Nc1ccc(CN2CCOCC2)cc1)c1ccc2c(c1)[nH]c(=O)n2CCc1ccccc1` [Compound B7] showed an inhibition at 100 µM [1] of 13.3%, a pKi [2] of 4.18 and a pIC50 [2] of 4.40. For the same compound, the inhibition at 200 µM [3] was 14.9%.

`O=C(CSc1nnc(-c2cccc(F)c2)o1)N1CCC(Cc2ccccc2)CC1` [Compound E3] showed an inhibition at 100 µM [1] of 10.3%, an inhibition at 200 µM [2] of 10.2% and an inhibition at 200 µM [3] of 23%.

With `COc1ccc(NC(=O)Cn2nc(C(F)(F)F)c3c2CCCC3)c(OC)c1` [Compound D5] the inhibition at 100 µM [1] was 0%, the inhibition at 200 µM [2] was 4.2% and the inhibition at 200 µM [3] was 7.8%.

`COc1ccc(-c2cc(C(F)(F)F)nc(SCCC(=O)N3CCN(C)CC3)n2)cc1` [Compound D6] gave an inhibition at 100 µM [1] of 4.8%, an inhibition at 200 µM [2] of 0% and an inhibition at 200 µM [3] of 9.3%.

With `CN(C(=O)COc1ccc(-c2nn(C)c(=O)c3ccccc23)cc1)C1CCCCC1` [Compound C1] the inhibition at 100 µM [1] was 0%, the pKi [2] was 4.37 and the pIC50 [2] was 4.14. For the same compound, the inhibition at 200 µM [3] was 9.8%.

Compound `CCc1ccccc1NC(=O)CSc1nnc(-c2cccnc2)n1CC` [Compound E2] has an inhibition at 100 µM [1] of 4.1%, an inhibition at 200 µM [2] of 2.7% and an inhibition at 200 µM [3] of 12%.

For `Cc1ccccc1OCC(=O)Oc1ccc2c(C)cc(=O)oc2c1` [Compound E6], the inhibition at 100 µM [1] was 2.5%, the inhibition at 200 µM [2] was 0% and the inhibition at 200 µM [3] was 13.2%.

`Cc1cc2nc(C3CCN(CC(=O)Nc4ccccc4)CC3)[nH]c2cc1C` [Compound A6] was tested, and the inhibition at 100 µM [1] was 0%, the inhibition at 200 µM [2] was 11.9% and the inhibition at 200 µM [3] was 20.2%.

Compound `COCCNc1c(-c2cc3cc(C)ccc3[nH]c2=O)nc2ccc(Cl)cn12` [Compound C7] has an inhibition at 100 µM [1] of 0%, an inhibition at 200 µM [2] of 15.7% and an inhibition at 200 µM [3] of 29.4%.

`Cc1onc(-c2ccccc2Cl)c1C(=O)N1CCN(Cc2ccc3c(c2)OCO3)CC1` [Compound E7] gave an inhibition at 100 µM [1] of 0%, an inhibition at 200 µM [2] of 0.5% and an inhibition at 200 µM [3] of 37.5%.

`COc1cc(CN2CCC(C(=O)N3CCC(C)CC3)CC2)ccc1OCc1ccccc1` [Compound B5] was tested, and the inhibition at 100 µM [1] was 0%, the inhibition at 200 µM [2] was 26.1% and the inhibition at 200 µM [3] was 39.5%.

Compound `CCn1c(CNC(=O)COc2ccc(Cl)cc2)cc2ccccc21` [Compound C3] has an inhibition at 100 µM [1] of 0%, an inhibition at 200 µM [2] of 22% and an inhibition at 200 µM [3] of 20.1%.
